The structures appear in SMILES notation. Some results are limits rather than exact numbers.

This passage reports IC50 results from patent US9796704B2, “Substituted quinazolines as receptor-type kinase inhibitors” (Symphony Evolution, Inc., priority 2002, dated 2017).

Assay [1] has as its target EphA2 (Homo sapiens (Human), UniProt P29317). Briefly: EphA2 kinase inhibition, luciferase-coupled chemiluminescent assay (LCCA). Conditions: read-out: EphA2 IC50.
Assay [2] deals with EGFR (Homo sapiens (Human), UniProt P00533). Briefly: EGFR kinase inhibition, luciferase-coupled chemiluminescent assay (LCCA). Conditions: read-out: EGFR IC50.
Sequence of EGFR (P00533 672-1210): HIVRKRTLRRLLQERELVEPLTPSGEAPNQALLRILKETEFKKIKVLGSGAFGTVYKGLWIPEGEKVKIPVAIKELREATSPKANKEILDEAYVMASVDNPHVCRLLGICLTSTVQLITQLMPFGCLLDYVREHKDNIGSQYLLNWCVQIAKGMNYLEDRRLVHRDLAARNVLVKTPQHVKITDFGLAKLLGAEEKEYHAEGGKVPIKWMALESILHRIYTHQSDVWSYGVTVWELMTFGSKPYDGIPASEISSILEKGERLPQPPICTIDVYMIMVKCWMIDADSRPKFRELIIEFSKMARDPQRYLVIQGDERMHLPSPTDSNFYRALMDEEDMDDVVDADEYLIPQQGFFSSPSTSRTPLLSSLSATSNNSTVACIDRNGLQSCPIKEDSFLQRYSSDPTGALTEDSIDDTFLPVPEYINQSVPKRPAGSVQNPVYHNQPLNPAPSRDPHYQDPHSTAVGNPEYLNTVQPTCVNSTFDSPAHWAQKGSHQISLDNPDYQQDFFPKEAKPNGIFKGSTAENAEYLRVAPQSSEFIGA
Method: Kinase activity and compound inhibition are investigated using one or more of the three assay formats described below. The ATP concentrations are selected near its Michaelis-Menten constant (KM) for each individual kinase. Dose-response experiments are performed at ten different inhibitor concentrations in a 384-well plate format. […] Typically H is close to unity.
In the LCCA assays, kinase activity is measured by the ATP consumption that is accurately measured by luciferase-coupled chemiluminescence. Greiner 384-well white clear bottom medium binding plates are used for LCCA. Briefly the kinase reaction is initiated by mixing compounds, ATP and kinases in a 20 μL volume. At the end of the kinase reaction, a 20 μL luciferase-luciferin mix is added and the chemiluminescent signal is read on a Wallac Victor^2 reader.
In assay [3] the target is EphB4 (Homo sapiens (Human), UniProt P54760). Briefly: EphB4 kinase inhibition, 33P phosphoryl transfer assay (radiometric). Type of assay: biochemical. The procedure:
Phosphorylated substrate products are quantified by scintillation spectrometry.
Kinase activity and compound inhibition are investigated using one or more of the three assay formats described below. The ATP concentrations are selected near its Michaelis-Menten constant (KM) for each individual kinase. Dose-response experiments are performed at ten different inhibitor concentrations in a 384-well plate format. […] These parameters are obtained by nonlinear regression algorithm built into ActivityBase software (available from ID Business Solutions Ltd., of Guildford, Surrey, UK). ^33P Phosphoryl Transfer Assay (Radiometric)
Greiner 384-well white clear bottom high binding plates (available from Greiner Bio-One, Inc., of Longwood, Fla.) are coated with 2 μg/well of protein or peptide substrate in a 50 μL volume overnight at ambient temperature. […] The coating solution is aspirated and the plates are washed once with 50 μL of assay buffer and padded dry. Subsequently compounds and enzymes are mixed with γ ^33P-ATP (3.3 μCi/nmol) in a total volume of 20 uL in suitable assay buffers (see Table 2). For example the final EphB4 reaction solution contains 20 mM TrisHCl, pH 7.5, 10 mM MgCl2, 0.01% Triton X-100, 0.1 mM NaVO3, 5 nM EphB4 enzyme and 5 μM ATP. […] The plates are subsequently washed 6-12 times with PBST or TBS buffer.

Sequence of EphB4 (P54760 605-890): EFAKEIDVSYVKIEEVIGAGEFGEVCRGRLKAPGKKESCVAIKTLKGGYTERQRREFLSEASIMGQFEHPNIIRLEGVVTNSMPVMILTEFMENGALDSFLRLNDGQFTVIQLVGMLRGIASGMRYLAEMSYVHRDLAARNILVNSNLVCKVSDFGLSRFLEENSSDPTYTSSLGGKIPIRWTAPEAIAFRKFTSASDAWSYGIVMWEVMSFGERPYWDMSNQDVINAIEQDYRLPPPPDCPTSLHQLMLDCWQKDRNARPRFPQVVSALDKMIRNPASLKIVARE
Sequence of EphA2 (P29317 598-890): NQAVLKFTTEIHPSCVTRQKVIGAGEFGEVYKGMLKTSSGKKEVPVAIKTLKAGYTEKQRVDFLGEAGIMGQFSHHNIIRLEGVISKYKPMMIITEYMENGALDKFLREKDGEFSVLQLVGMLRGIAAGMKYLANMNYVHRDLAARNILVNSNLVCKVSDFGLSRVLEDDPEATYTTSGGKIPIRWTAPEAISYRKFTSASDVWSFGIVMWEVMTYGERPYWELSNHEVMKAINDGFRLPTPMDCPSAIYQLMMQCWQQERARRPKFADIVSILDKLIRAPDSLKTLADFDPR

The IC50 is the point on the concentration scale where inhibition reaches its midpoint. As to `COc1cc2c(Nc3ccc(Cl)c(Cl)c3)ncnc2cc1OCc1cccnc1` [Example 179, N-(3,4-dichlorophenyl)-6-(methyloxy)-7-[(pyridin-3-ylmethyl)oxy]quinazolin-4-amine], the half-maximal inhibitory concentration (IC50) in assay [1] is 1000 to 20000 nM; in assay [2] it was less than 50 nM. `COc1cc2c(Nc3ccc(Cl)c(Cl)c3)ncnc2cc1OCc1nc(N2CCNCC2)no1` [Example 217, N-(3,4-dichlorophenyl)-6-(methyloxy)-7-{[(3-piperazin-1-yl-1,2,4-oxadiazol-5-yl)methyl]oxy}quinazolin-4-amine]: the IC50 in assay [1] is less than 50 nM. For `COc1cc2c(Nc3ccc(F)c(Cl)c3F)ncnc2cc1O[C@@H]1CO[C@@H]2[C@H]1OC[C@H]2F` [Example 137, 1,4:3,6-dianhydro-5-O-[4-[(3-chloro-2,4-difluorophenyl)amino]-6-(methyloxy)quinazolin-7-yl]-2-deoxy-2-fluoro-D-iditol], the IC50 in assay [3] and in assay [2] was less than 50 nM throughout. As to `COc1cc2c(Nc3ccc(Br)c(Cl)c3Cl)ncnc2cc1O[C@@H]1CO[C@@H]2[C@H]1OC[C@H]2F` [Example 103, 1,4:3,6-dianhydro-5-O-[4-[(4-bromo-2,3-dichlorophenyl)amino]-6-(methyloxy)quinazolin-7-yl]-2-deoxy-2-fluoro-D-iditol], the IC50 in assay [3] and in assay [2] was less than 50 nM each time. In the case of `COc1cc2c(Nc3ccc(Cl)c(Cl)c3)ncnc2cc1OCc1nc(CN2CCOCC2)no1` [Example 143, N-(3,4-dichlorophenyl)-6-(methyloxy)-7-({[3-(morpholin-4-ylmethyl)-1,2,4-oxadiazol-5-yl]methyl}oxy)quinazolin-4-amine], the IC50 in assay [3] was 50 to 1000 nM; in assay [2] it was less than 50 nM. The corresponding values for `COc1cc2c(Nc3ccc(Cl)c(Cl)c3)ncnc2cc1OCc1csc(-c2ccc(C(F)(F)F)cc2)n1` [Example 222, N-(3,4-dichlorophenyl)-6-(methyloxy)-7-[({2-[4-(trifluoromethyl)phenyl]-1,3-thiazol-4-yl}methyl)oxy]quinazolin-4-amine] are 50 to 1000 nM and less than 50 nM. In the case of `COc1cc2c(Nc3ccc(F)c(F)c3F)ncnc2cc1O[C@@H]1CO[C@@H]2[C@H]1OC[C@H]2F` [Example 84, 1,4:3,6-dianhydro-2-deoxy-2-fluoro-5-O-{6-(methyloxy)-4-[(2,3,4-trifluorophenyl)amino]quinazolin-7-yl}-D-iditol], the IC50 in assay [3] and in assay [2] was less than 50 nM in each case. Regarding `COc1cc2c(Nc3ccc(Cl)c(Cl)c3)ncnc2cc1OCc1noc(C2CCCCN2)n1` (stereo not drawn) [Example 145, N-(3,4-dichlorophenyl)-6-(methyloxy)-7-{[(5-piperidin-2-yl-1,2,4-oxadiazol-3-yl)methyl]oxy}quinazolin-4-amine], the IC50 was 50 to 1000 nM in assay [3] and less than 50 nM in assay [2]. The corresponding values for `COc1cc2c(Nc3ccc(Cl)c(Cl)c3)ncnc2cc1OCc1nc(CN(C)C)no1` [Example 139, N-(3,4-dichlorophenyl)-7-[({3-[(dimethylamino)methyl]-1,2,4-oxadiazol-5-yl}methyl)oxy]-6-(methyloxy)quinazolin-4-amine] are 50 to 1000 nM and less than 50 nM. `COc1cc2c(Nc3ccc(Cl)c(Cl)c3)ncnc2cc1OCc1ccncc1` [Example 172, N-(3,4-dichlorophenyl)-6-(methyloxy)-7-[(pyridin-4-ylmethyl)oxy]quinazolin-4-amine]: the IC50 in assay [3] and in assay [2] was less than 50 nM each time. Turning to `COc1cc2c(Nc3ccc(Cl)c(Cl)c3)ncnc2cc1OCc1noc(C2CCNCC2)n1` [Example 141, N-(3,4-dichlorophenyl)-6-(methyloxy)-7-{[(5-piperidin-4-yl-1,2,4-oxadiazol-3-yl)methyl]oxy}quinazolin-4-amine], the IC50 in assay [3] was 50 to 1000 nM; in assay [2], less than 50 nM.

Regarding `COc1cc2c(Nc3cccc(Br)c3)ncnc2cc1O[C@@H]1CO[C@@H]2[C@H]1OC[C@H]2F` [Example 129, 1,4:3,6-dianhydro-5-O-[4-[(3-bromophenyl)amino]-6-(methyloxy)quinazolin-7-yl]-2-deoxy-2-fluoro-D-iditol], the IC50 in assay [3] and in assay [2] was less than 50 nM each time. As to `COc1cc2c(Nc3ccc(Cl)c(Cl)c3)ncnc2cc1OCc1noc(C2CCCNC2)n1` (stereo not drawn) [Example 153, N-(3,4-dichlorophenyl)-6-(methyloxy)-7-{[(5-piperidin-3-yl-1,2,4-oxadiazol-3-yl)methyl]oxy}quinazolin-4-amine], the IC50 in assay [3] was 50 to 1000 nM; in assay [2] it was less than 50 nM. As for `COc1cc2c(Nc3ccc(Cl)c(Cl)c3)ncnc2cc1OCC1CN(C2CCCC2)CCO1` (stereo not drawn) [Example 269, 7-{[(4-cyclopentylmorpholin-2-yl)methyl]oxy}-N-(3,4-dichlorophenyl)-6-(methyloxy)quinazolin-4-amine], the values for the IC50 in assay [3] and in assay [2] were 50 to 1000 nM and less than 50 nM, respectively. The corresponding values for `COc1cc2c(Nc3ccc(Br)c(Cl)c3)ncnc2cc1O[C@H]1CO[C@@H]2C3OC(C)(C)O[C@H]3O[C@H]12` (stereo partly drawn) [Example 80, 3,6-anhydro-5-O-[4-[(4-bromo-3-chlorophenyl)amino]-6-(methyloxy)quinazolin-7-yl]-1,2-O-(1-methylethylidene)-beta-L-xylo-hexofuranose] are less than 50 nM and less than 50 nM. As to `COc1cc2c(Nc3cccc(F)c3F)ncnc2cc1O[C@@H]1CO[C@@H]2[C@H]1OC[C@H]2F` [Example 92, 1,4:3,6-dianhydro-2-deoxy-5-O-[4-[(2,3-difluorophenyl)amino]-6-(methyloxy)quinazolin-7-yl]-2-fluoro-D-iditol], the half-maximal inhibitory concentration (IC50) in assay [3] and in assay [2] was less than 50 nM in each case. In the case of `COc1cc2c(Nc3ccc(Cl)c(Cl)c3)ncnc2cc1OCc1noc(C2CCN(C)CC2)n1` [Example 142, N-(3,4-dichlorophenyl)-6-(methyloxy)-7-({[5-(1-methylpiperidin-4-yl)-1,2,4-oxadiazol-3-yl]methyl}oxy)quinazolin-4-amine], the IC50 in assay [3] is 50 to 1000 nM; in assay [2], less than 50 nM. For the molecule `COc1cc(OC)c(Nc2ncnc3cc(O[C@@H]4CO[C@@H]5[C@H]4OC[C@H]5F)c(OC)cc23)cc1Cl` [Example 135, 1,4:3,6-dianhydro-5-O-[4-{[5-chloro-2,4-bis(methyloxy)phenyl]amino}-6-(methyloxy)quinazolin-7-yl]-2-deoxy-2-fluoro-D-iditol], the IC50 in assay [3] and in assay [2] was less than 50 nM in each case.

`COc1cc2c(Nc3ccc(Cl)c(Cl)c3)ncnc2cc1OCc1noc(C2CCCN(C)C2)n1` (stereo not drawn) [Example 156, N-(3,4-dichlorophenyl)-6-(methyloxy)-7-({[5-(1-methylpiperidin-3-yl)-1,2,4-oxadiazol-3-yl]methyl}oxy)quinazolin-4-amine]: the IC50 in assay [3] is 50 to 1000 nM; in assay [2], less than 50 nM. As for `COc1cc2c(Nc3ccc(Cl)cc3Cl)ncnc2cc1O[C@@H]1CO[C@@H]2[C@H]1OC[C@H]2F` [Example 117, 1,4:3,6-dianhydro-2-deoxy-5-O-[4-[(2,4-dichlorophenyl)amino]-6-(methyloxy)quinazolin-7-yl]-2-fluoro-D-iditol], the IC50 in assay [3] and in assay [2] was less than 50 nM each time.
